Laboratory results as given in patent US6552079B2, “Integrin antagonists” (Eli Lilly and Company, priority 1996, dated 2003).

How the values were obtained:
[1] = biological target: T1, vitronectin receptor, αvβ3 (Homo sapiens, UniProt P05106+P06756); assay: αvβ3 ELISA purified integrin binding assay (vitronectin binding); conditions: inhibition of biotinylated vitronectin binding to immobilized purified αvβ3
T1 construct: After purification, the receptors were each stored in 0.1% Triton X-100 at 0.1-1.0 mg/ml; from tissue
T1 sequence (P06756 31-889 limits assumed): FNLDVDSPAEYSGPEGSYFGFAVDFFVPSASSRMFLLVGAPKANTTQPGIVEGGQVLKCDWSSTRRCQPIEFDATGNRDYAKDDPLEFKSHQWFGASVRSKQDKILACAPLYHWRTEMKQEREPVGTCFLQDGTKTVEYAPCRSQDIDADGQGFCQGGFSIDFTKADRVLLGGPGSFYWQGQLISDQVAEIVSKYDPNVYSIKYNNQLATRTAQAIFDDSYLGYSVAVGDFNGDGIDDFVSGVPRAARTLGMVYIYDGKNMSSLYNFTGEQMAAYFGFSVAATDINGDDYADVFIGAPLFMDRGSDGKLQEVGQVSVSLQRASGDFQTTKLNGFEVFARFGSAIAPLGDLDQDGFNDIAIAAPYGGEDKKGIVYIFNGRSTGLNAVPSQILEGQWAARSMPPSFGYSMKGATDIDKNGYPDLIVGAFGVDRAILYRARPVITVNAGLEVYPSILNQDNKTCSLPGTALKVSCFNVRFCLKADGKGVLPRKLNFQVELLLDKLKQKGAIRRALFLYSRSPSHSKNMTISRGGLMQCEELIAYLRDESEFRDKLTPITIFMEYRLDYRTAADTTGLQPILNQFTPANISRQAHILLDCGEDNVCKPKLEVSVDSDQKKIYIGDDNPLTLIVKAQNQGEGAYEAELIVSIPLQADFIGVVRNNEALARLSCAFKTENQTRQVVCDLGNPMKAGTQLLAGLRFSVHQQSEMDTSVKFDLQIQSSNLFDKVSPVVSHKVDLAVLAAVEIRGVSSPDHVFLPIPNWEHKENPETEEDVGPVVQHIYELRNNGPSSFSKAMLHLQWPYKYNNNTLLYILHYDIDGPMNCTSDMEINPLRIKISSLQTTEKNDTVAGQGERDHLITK
T1 sequence (P06756 891-1048 partner limits assumed): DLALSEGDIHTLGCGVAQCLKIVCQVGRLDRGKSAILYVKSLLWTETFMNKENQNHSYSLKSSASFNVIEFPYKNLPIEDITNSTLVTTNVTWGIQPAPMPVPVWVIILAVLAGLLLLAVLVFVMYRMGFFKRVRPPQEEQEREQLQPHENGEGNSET
T1 sequence (P05106 27-788): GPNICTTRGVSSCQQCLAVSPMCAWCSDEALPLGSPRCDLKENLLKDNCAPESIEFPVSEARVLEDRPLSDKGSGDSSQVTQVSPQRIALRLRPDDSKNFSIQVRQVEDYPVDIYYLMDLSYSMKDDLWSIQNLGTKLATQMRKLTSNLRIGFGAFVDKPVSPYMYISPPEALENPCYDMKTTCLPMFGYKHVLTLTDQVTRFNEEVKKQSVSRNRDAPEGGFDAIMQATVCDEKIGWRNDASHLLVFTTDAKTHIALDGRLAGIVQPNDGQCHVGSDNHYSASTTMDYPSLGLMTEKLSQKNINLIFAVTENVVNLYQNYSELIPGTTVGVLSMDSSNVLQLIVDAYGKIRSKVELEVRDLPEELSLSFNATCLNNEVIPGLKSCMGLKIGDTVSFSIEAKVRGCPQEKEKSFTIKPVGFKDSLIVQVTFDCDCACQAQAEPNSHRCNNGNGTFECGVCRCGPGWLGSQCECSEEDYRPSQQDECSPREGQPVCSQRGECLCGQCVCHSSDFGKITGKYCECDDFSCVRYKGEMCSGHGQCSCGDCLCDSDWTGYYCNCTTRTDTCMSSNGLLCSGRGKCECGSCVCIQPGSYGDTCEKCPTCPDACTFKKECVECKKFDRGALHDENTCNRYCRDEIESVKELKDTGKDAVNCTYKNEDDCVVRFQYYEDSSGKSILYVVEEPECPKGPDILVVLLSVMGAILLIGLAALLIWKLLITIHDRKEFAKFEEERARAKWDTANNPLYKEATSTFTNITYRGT
Experimental: (§1) In the following assays, GPIIb-IIIa and vitronectin receptor, αvβ3 were prepared in purified form, by methods described in Fitzgerald, L. A., et al., Anal Biochem (1985) 151: 169-177 and Smith, J. W., J. Biol Chem (1988) 263: 18726-18731 (the disclosure of which is incorporated herein by reference). GPIIb-IIIa or vitronectin receptor, αvβ3, are coated onto microtiter plates. The coated support is then contacted with fibrinogen for the GPIIb-IIIa assay, or is contacted with vitronectin for the vitronectin receptor, αvβ3 and with test materials and incubated for sufficient time to reach maximal ligand binding to immobilized integrins. The adhesive ligands fibrinogen or vitronectin were typically provided at a concentration of 2-50 nM and the test material can, if desired, be added at a series of diultions. […]
(§2) The corresponding ligands (fibrinogen, von Willebrand Factor, or vitronectin) were conjugated to biotin using commercially available reagents and standard protocols. […] After incubation, the wells were aspirated to dryness and bound ligand containing biotin label was quantitated.
(§3) The bound protein was detected by the addition of anti-biotin antibody conjugated to alkaline phosphatase followed by addition of substrate (p-nitrophenyl […] phosphate), and determination of the optical density of each well at […].

[2] = test system: ADP-induced aggregation of human platelets (PRP); assay: Platelet aggregation assay (Aggregation-Human/PRP/ADP); type: cell-based; conditions: human platelet rich plasma, ADP 20 μM
Experimental: In addition to the ELISA integrin binding assays described above, the Aggregation-Human/PRP/ADP Assay is useful for evaluating therapeutic compounds.
Platelet rich plasma (PRP) is prepared from healthy human volunteers for use in determining inhibition of platelet aggregation by compounds. Blood was collected via a 21 gauge butterfly cannula, using a two-syringe technique into 1/10 volume of […] trisodium citrate.
Platelet rich plasma was prepared at room temperature by centrifugation of the citrated whole blood at 100×g for 15 minutes. The PRP contained approximately 200-400,000 platelets/μl. Platelet poor plasma was prepared by centrifugation of citrated whole blood at 12,000×g for 2 minutes.
Platelet aggregation was assayed in a Chrono-log whole blood aggregometer (Chrono-log Corporation, Havertown, Pa.) using the PRP prepared above according to the manufacturers directions. Inhibition of platelet aggregation was studied by adding varying amounts of test materials followed by adenosine diphosphate (ADP, 20 μM) to stirred human PRP. Specifically, the human PRP was incubated with the compound for 1-2 min. at 37° C. prior to addition of the aggregating agent ADP.

GPIIb-IIIa = biological target: T2, GPIIb-IIIa (Homo sapiens, UniProt P05106+P08514); assay: GPIIb-IIIa ELISA purified integrin binding assay (fibrinogen binding); conditions: inhibition of biotinylated fibrinogen binding to immobilized purified platelet GPIIb-IIIa; read-out: GPIIbIIIa ELISA (IC50 μM)
T2 construct: Purified platelet GPIIb-IIIa was prepared by Fitzgerald, L. A., et al; from tissue; host or cells: platelets
T2 sequence (P08514 32-887 limits assumed): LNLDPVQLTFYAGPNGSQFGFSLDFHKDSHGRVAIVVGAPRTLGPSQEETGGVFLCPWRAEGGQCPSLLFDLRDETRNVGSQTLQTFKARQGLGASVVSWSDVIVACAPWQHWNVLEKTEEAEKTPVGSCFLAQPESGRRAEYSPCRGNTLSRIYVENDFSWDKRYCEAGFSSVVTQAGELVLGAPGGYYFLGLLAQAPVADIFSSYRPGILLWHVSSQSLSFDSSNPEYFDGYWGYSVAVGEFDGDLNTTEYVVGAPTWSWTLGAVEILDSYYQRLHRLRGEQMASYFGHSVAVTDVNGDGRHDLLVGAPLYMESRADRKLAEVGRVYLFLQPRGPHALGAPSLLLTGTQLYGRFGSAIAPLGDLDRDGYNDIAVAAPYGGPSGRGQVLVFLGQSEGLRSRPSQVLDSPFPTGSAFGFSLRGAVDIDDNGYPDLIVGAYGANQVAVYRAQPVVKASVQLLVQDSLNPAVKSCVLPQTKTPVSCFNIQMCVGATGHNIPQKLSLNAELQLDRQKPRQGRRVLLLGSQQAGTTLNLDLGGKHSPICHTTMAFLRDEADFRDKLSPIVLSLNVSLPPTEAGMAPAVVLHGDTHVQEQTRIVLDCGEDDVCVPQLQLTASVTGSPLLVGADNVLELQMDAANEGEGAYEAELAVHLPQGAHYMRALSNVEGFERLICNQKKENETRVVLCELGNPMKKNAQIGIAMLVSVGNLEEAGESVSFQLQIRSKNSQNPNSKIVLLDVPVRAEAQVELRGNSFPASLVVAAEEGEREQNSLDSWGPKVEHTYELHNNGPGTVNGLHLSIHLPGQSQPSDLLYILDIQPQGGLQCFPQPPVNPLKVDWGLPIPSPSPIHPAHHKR
T2 sequence (P08514 891-1039 partner limits assumed): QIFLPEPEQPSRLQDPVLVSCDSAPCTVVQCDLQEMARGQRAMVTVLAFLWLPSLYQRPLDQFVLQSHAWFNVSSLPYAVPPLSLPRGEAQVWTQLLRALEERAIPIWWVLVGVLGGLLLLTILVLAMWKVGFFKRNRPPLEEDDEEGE
T2 sequence (P05106 27-788): as the sequence (P05106 27-788) above
Experimental: as §1, §2, §3

## O=C(CNC(=O)C1CCNCC1)NCC(NS(=O)(=O)c1ccccc1)C(=O)O (stereo not drawn) [Compound 16]
[1]
  IC50: > 100 µM
[2]
  IC50: 49.3 µM
GPIIb-IIIa
  IC50: 5 µM
